Results as given in ChEMBL document CHEMBL3885881, “DrugMatrix”.

Organism: Rattus norvegicus
Assay: DrugMatrix - Regimen: Daily Repeat
Format: toxicity, organism-based, Sprague-Dawley
Design: regimen Daily Repeat, gender Male, age 6-8 weeks
Details: in vivo, iv, vehicle 100 % SALINE; for ABSOLUTE BASOPHIL / ABSOLUTE EOSINOPHIL / ABSOLUTE LYMPHOCYTE / ABSOLUTE MONOCYTE / ABSOLUTE SEGMENTED NEUTROPHIL / BASOPHIL / EOSINOPHIL / ERYTHROCYTE COUNT / HEMATOCRIT / LEUKOCYTE COUNT / LYMPHOCYTE / MEAN CORPUSCULAR HEMOGLOBIN / MEAN CORPUSCULAR HEMOGLOBIN CONCENTRATION / MEAN CORPUSCULAR VOLUME / MONOCYTE / NEUTROPHIL / NUCLEATED RED BLOOD CELLS / PLATELET COUNT / HEMOGLOBIN: tissue Blood
[1] = 0 mg/kg, 72 h, dose level Control, time 3 day
[2] = 0 mg/kg, 72 h, tissue Plasma, dose level Control, time 3 day
[3] = 0 mg/kg, 120 h, dose level Control, time 5 day
[4] = 0 mg/kg, 120 h, tissue Plasma, dose level Control, time 5 day
[5] = 8 mg/kg, 72 h, dose level High, time 3 day
[6] = 8 mg/kg, 72 h, tissue Plasma, dose level High, time 3 day
[7] = 8 mg/kg, 120 h, dose level High, time 5 day
[8] = 8 mg/kg, 120 h, tissue Plasma, dose level High, time 5 day

Sequence: OXALIPLATIN
- ABSOLUTE BASOPHIL [1]: 0 CELLS/uL
- ABSOLUTE EOSINOPHIL [1]: 0 CELLS/uL
- ABSOLUTE LYMPHOCYTE [1]: 7637.67 CELLS/uL
- ABSOLUTE MONOCYTE [1]: 67.83 CELLS/uL
- ABSOLUTE SEGMENTED NEUTROPHIL [1]: 661.17 CELLS/uL
- BASOPHIL [1]: 0%
- EOSINOPHIL [1]: 0%
- ERYTHROCYTE COUNT [1]: 5.38 x10E6/uL
- HEMATOCRIT [1]: 33.67%
- LEUKOCYTE COUNT [1]: 8.37 x10E3/uL
- LYMPHOCYTE [1]: 91.17%
- MEAN CORPUSCULAR HEMOGLOBIN [1]: 23.95 pg
- MEAN CORPUSCULAR HEMOGLOBIN CONCENTRATION [1]: 38.23 G/DL
- MEAN CORPUSCULAR VOLUME [1]: 62.6 fL
- MONOCYTE [1]: 0.83%
- NEUTROPHIL [1]: 8%
- NUCLEATED RED BLOOD CELLS [1]: 0.17 /100WBC
- PLATELET COUNT [1]: 865 x10E3/uL
- ALANINE AMINOTRANSFERASE [2]: 51.67 u/L
- ALKALINE PHOSPHATASE [2]: 351.17 u/L
- ASPARTATE AMINOTRANSFERASE [2]: 82.33 u/L
- BLOOD UREA NITROGEN [2]: 15.17 mg/dL
- CARBON DIOXIDE [2]: 34.5 mmol/L
- CHLORIDE [2]: 100 MEQ/L
- CHOLESTEROL [2]: 80.33 mg/dL
- CREATINE PHOSPHOKINASE [2]: 316.5 u/L
- CREATININE [2]: 0.17 mg/dL
- LACTATE DEHYDROGENASE [2]: 105.67 u/L
- LIPASE [2]: 9.5 u/L
- PHOSPHORUS [2]: 10.87 mg/dL
- POTASSIUM [2]: 5.47 MEQ/L
- TOTAL BILIRUBIN [2]: 0.2 mg/dL
- TOTAL PROTEIN [2]: 5.83 G/DL
- URIC ACID [2]: 0.83 mg/dL
- ABSOLUTE BASOPHIL [3]: 0 CELLS/uL
- ABSOLUTE EOSINOPHIL [3]: 0 CELLS/uL
- ABSOLUTE LYMPHOCYTE [3]: 6333.5 CELLS/uL
- ABSOLUTE MONOCYTE [3]: 38.83 CELLS/uL
- ABSOLUTE SEGMENTED NEUTROPHIL [3]: 661 CELLS/uL
- BASOPHIL [3]: 0%
- EOSINOPHIL [3]: 0%
- ERYTHROCYTE COUNT [3]: 5.44 x10E6/uL
- HEMATOCRIT [3]: 34.17%
- HEMOGLOBIN [3]: 13.22 G/DL
- LEUKOCYTE COUNT [3]: 7.03 x10E3/uL
- LYMPHOCYTE [3]: 90.17%
- MEAN CORPUSCULAR HEMOGLOBIN [3]: 24.38 pg
- MEAN CORPUSCULAR HEMOGLOBIN CONCENTRATION [3]: 38.7 G/DL
- MEAN CORPUSCULAR VOLUME [3]: 62.95 fL
- MONOCYTE [3]: 0.5%
- NUCLEATED RED BLOOD CELLS [3]: 0 /100WBC
- PLATELET COUNT [3]: 924.33 x10E3/uL
- ALANINE AMINOTRANSFERASE [4]: 52.5 u/L
- ALKALINE PHOSPHATASE [4]: 364.83 u/L
- ASPARTATE AMINOTRANSFERASE [4]: 82.5 u/L
- BLOOD UREA NITROGEN [4]: 17 mg/dL
- CARBON DIOXIDE [4]: 32.33 mmol/L
- CHLORIDE [4]: 99.6 MEQ/L
- CHOLESTEROL [4]: 75.83 mg/dL
- CREATINE PHOSPHOKINASE [4]: 419 u/L
- CREATININE [4]: 0.21 mg/dL
- GLUCOSE [4]: 155 mg/dL
- LIPASE [4]: 11.33 u/L
- PHOSPHORUS [4]: 10.32 mg/dL
- POTASSIUM [4]: 5.37 MEQ/L
- TOTAL BILIRUBIN [4]: 0.18 mg/dL
- TOTAL PROTEIN [4]: 5.98 G/DL
- URIC ACID [4]: 0.62 mg/dL
- ABSOLUTE BASOPHIL [5]: 0 CELLS/uL
- ABSOLUTE EOSINOPHIL [5]: 0 CELLS/uL
- ABSOLUTE LYMPHOCYTE [5]: 4377.33 CELLS/uL
- ABSOLUTE MONOCYTE [5]: 16.67 CELLS/uL
- ABSOLUTE SEGMENTED NEUTROPHIL [5]: 339.33 CELLS/uL
- BASOPHIL [5]: 0%
- EOSINOPHIL [5]: 0%
- ERYTHROCYTE COUNT [5]: 5.41 x10E6/uL
- HEMATOCRIT [5]: 33.23%
- HEMOGLOBIN [5]: 12.83 G/DL
- LEUKOCYTE COUNT [5]: 4.73 x10E3/uL
- LYMPHOCYTE [5]: 92.67%
- MEAN CORPUSCULAR HEMOGLOBIN CONCENTRATION [5]: 38.63 G/DL
- MONOCYTE [5]: 0.33%
- NEUTROPHIL [5]: 7%
- NUCLEATED RED BLOOD CELLS [5]: 0 /100WBC
- PLATELET COUNT [5]: 1068.33 x10E3/uL
- ALANINE AMINOTRANSFERASE [6]: 44.67 u/L
- ALBUMIN [6]: 4.3 G/DL
- ALKALINE PHOSPHATASE [6]: 356.33 u/L
- ASPARTATE AMINOTRANSFERASE [6]: 77.33 u/L
- BLOOD UREA NITROGEN [6]: 16.67 mg/dL
- CARBON DIOXIDE [6]: 34.33 mmol/L
- CHLORIDE [6]: 99 MEQ/L
- CHOLESTEROL [6]: 76 mg/dL
- CREATINE PHOSPHOKINASE [6]: 301 u/L
- CREATININE [6]: 0.12 mg/dL
- LACTATE DEHYDROGENASE [6]: 153.67 u/L
- POTASSIUM [6]: 5.69 MEQ/L
- TOTAL BILIRUBIN [6]: 0.2 mg/dL
- TOTAL PROTEIN [6]: 6.2 G/DL
- URIC ACID [6]: 0.67 mg/dL
- ABSOLUTE BASOPHIL [7]: 0 CELLS/uL
- ABSOLUTE EOSINOPHIL [7]: 0 CELLS/uL
- ABSOLUTE LYMPHOCYTE [7]: 3427.33 CELLS/uL
- ABSOLUTE MONOCYTE [7]: 20 CELLS/uL
- ABSOLUTE SEGMENTED NEUTROPHIL [7]: 186 CELLS/uL
- BASOPHIL [7]: 0%
- EOSINOPHIL [7]: 0%
- ERYTHROCYTE COUNT [7]: 5.56 x10E6/uL
- HEMATOCRIT [7]: 33.2%
- HEMOGLOBIN [7]: 12.67 G/DL
- LEUKOCYTE COUNT [7]: 3.63 x10E3/uL
- LYMPHOCYTE [7]: 93.33%
- MEAN CORPUSCULAR HEMOGLOBIN [7]: 22.77 pg
- MEAN CORPUSCULAR HEMOGLOBIN CONCENTRATION [7]: 38.17 G/DL
- MONOCYTE [7]: 0.67%
- NEUTROPHIL [7]: 6%
- NUCLEATED RED BLOOD CELLS [7]: 0.33 /100WBC
- PLATELET COUNT [7]: 976 x10E3/uL
- ALANINE AMINOTRANSFERASE [8]: 50 u/L
- ALKALINE PHOSPHATASE [8]: 285.67 u/L
- ASPARTATE AMINOTRANSFERASE [8]: 73.67 u/L
- BLOOD UREA NITROGEN [8]: 16.67 mg/dL
- CARBON DIOXIDE [8]: 33.67 mmol/L
- CHLORIDE [8]: 98 MEQ/L
- CHOLESTEROL [8]: 68.33 mg/dL
- CREATINE PHOSPHOKINASE [8]: 268.33 u/L
- CREATININE [8]: 0.16 mg/dL
- GLUCOSE [8]: 141 mg/dL
- LACTATE DEHYDROGENASE [8]: 86 u/L
- LIPASE [8]: 9 u/L
- PHOSPHORUS [8]: 9 mg/dL
- POTASSIUM [8]: 5.38 MEQ/L
- TOTAL BILIRUBIN [8]: 0.13 mg/dL
- TOTAL PROTEIN [8]: 6.33 G/DL
- URIC ACID [8]: 0.6 mg/dL
